Data set [1] deals with HCC827 (high EGFR-expressing lung cancer cell line). Briefly: Macrophage engulfment of HCC827 cells. It is filed as cell-based, human. The settings on record: combination with anti-EGFR antibody (cetuximab); vs low EGFR-expressing tumor cells.
Another data set has as its system CT26 tumor cells. Put plainly: CT26 tumor model, checkpoint antibody combinations (first Example 8). It is filed as in vivo, BALB/C mice. On the procedure: In FIG. 15B, the treatments included: an anti-CTLA-4 antibody (9D9), an anti-PD-1 antibody (RMP1-14), an anti-OX40 antibody (OX86), or the SIRPα(CD172a)-Fc-CD40L chimeric protein. […] In FIG. 15D, the treatments included the SIRPα(CD172a)-Fc-CD40L chimeric protein then the anti-CTLA-4 antibody. Tumor sizes were assayed every other day until the 27th day after inoculation.

The test system of a further data set is CT26 tumor. Briefly: CT26 tumor model, order of administration with anti-CTLA-4 or anti-PD-1 (Example 10). Type of data set: in vivo, mice.
The next data set has as its system CT26 tumors. Briefly: Syngeneic CT26 colon tumor model vs CD40 agonist and CD47 blocking antibodies (Example 11). It is filed as in vivo, mice. From the text:
Mice were inoculated with CT26 tumors on day 0 and treated at a later starting date than FIG. 20A with mSIRPα-Fc-CD40L ARC on days 7, 9, and 11. […] In FIG. 20D and FIG. 20E, BALB/C mice were inoculated with WEHI3 tumors (FIG. 20D) or A20 tumors (FIG. 20E) subcutaneously on the rear flank, and then treated via IP injection with anti-CD20 or mSIRPα-Fc-CD40L on days 7, 9, and 11 (WEHI3) or days 10, 12, and 14 (A20); when tumors were established and reached approximately 57-60 mm^3. A cohort of mice were pre-treated with an interferon alpha receptor 1 (IFNAR1) blocking antibody ([…] by IP injection) on days −1, 1, and 10 (WEHI3) or on days −1, 1, and 13 (A20). […] Samples were normalized to untreated animals.
Implanted CT26 tumors were allowed to grow to […] before treatment was initiated with a fixed regimen of two doses of either a CD40 agonist antibody (clone FGK4.5), a CD47 blocking antibody (clone MIAP301), a combination of the two antibodies, or the murine SIRPα-Fc-CD40L chimeric protein.

The subject of a further data set is WEHI3 tumors. Put plainly: WEHI3 tumor model. Type of data set: in vivo, BALB/C mice. On the procedure: FIG. 20C: a similar CT26 experiment was initiated as described in FIG. 20A above, however mice were pre-treated on days −1, 1, and 10 with IP injections of 100 μg of either or both CD4/CD8 depleting antibodies. Mice were inoculated with CT26 tumors on day 0 and treated at a later starting date than FIG. 20A with mSIRPα-Fc-CD40L ARC on days 7, 9, and 11. […] In FIG. 20D and FIG. 20E, BALB/C mice were inoculated with WEHI3 tumors (FIG. 20D) or A20 tumors (FIG. 20E) subcutaneously on the rear flank, and then treated via IP injection with anti-CD20 or mSIRPα-Fc-CD40L on days 7, 9, and 11 (WEHI3) or days 10, 12, and 14 (A20); when tumors were established and reached approximately 57-60 mm^3. A cohort of mice were pre-treated with an interferon alpha receptor 1 (IFNAR1) blocking antibody ([…] by IP injection) on days −1, 1, and 10 (WEHI3) or on days −1, 1, and 13 (A20). FIG. 20F to FIG. 20H are graphs showing blockade of CD4, CD8, and IFNAR1. Peripheral blood analysis by flow cytometry of CD4 (FIG. 20F), CD8 (FIG. 20G), and IFNAR1 (FIG. 20H) depletion following depleting antibody treatment corresponding to FIG. 20C to FIG. 20E. Samples were normalized to untreated animals.
In a second set of experiments, a combination of an anti-IFNAR-1 antibody and the anti-CD20 antibody, the SIRPα(CD172a)-Fc-CD40L chimeric protein in combination with the anti-IFNAR-1 antibody, and a triple combination of the SIRPα(CD172a)-Fc-CD40L chimeric protein, the anti-IFNAR-1 antibody, and the anti-CD20 antibody were tested. […] The depletion of IFNAR1+ cells was confirmed at multiple time points in the peripheral blood by flow cytometry (FIG. 20H).

In data set [2] the test system is cynomolgus macaque erythrocytes. Briefly: In vitro hemolysis, cynomolgus macaque erythrocytes. Type of data set: cell-based. From the text:
However, the in vitro systems used to test this question have significant limitations, including a complete lack of macrophages in the test system.

Data set [3] is described as follows: Repeat-dose safety and activity study in cynomolgus macaques. It is filed as in vivo. On the procedure: FIG. 21 is a graph showing cynomolgus macaques that were treated with vehicle, or 0.1, 1, 10, and 40 mg/kg of SIRPα-Fc-CD40L. Blood chemistry analysis assessed peripheral erythrocyte counts, hemoglobin levels, and hematocrit. In addition, the fold-change in lymphocyte count from pre-dose to 24 hours post-dose is shown.
The experiments of this example tested the safety and activity of the human SIRPα-Fc-CD40L chimeric protein following repeat doses in cynomolgus macaques. Briefly, naïve cynomolgus macaques were administered the human SIRPα-Fc-CD40L chimeric protein by intravenous infusion every week, for five consecutive weeks, at doses of 0.1, 1, 10 and 40 mg/kg. Standard hematology and clinical chemistry parameters were collected before and after each dose.
Receptor occupancy was evaluated on circulating CD40+ lymphocytes.

A further data set relates to tumors. Put plainly: In vivo tumor model, SIRPα-Fc-LIGHT with anti-PD-1 (Example 15). On the set-up: species or system mice. The settings on record: combination with anti-PD-1 antibody. On the procedure:
The in vivo ability of combinations of the SIRPα-Fc-LIGHT chimeric protein with anti-PD-1 antibodies to target and treat tumors was determined. (FIG. 26A and FIG. 26B) FIG. 26C and FIG. 26D include data relevant to the graphs of FIG. 26A and FIG. 26B.

This note sets out measurements from US20210379153A1, “COMBINATION THERAPIES COMPRISING SIRP ALPHA-BASED CHIMERIC PROTEINS” (Shattuck Labs, Inc., priority 2018, published 2021).

In the case of “SIRPα-Fc-CD40L: generic name of the SIRPαECD-Fc-CD40LECD chimeric protein; human or murine version according to the experiment”, the “macrophage engulfment of tumor cells” value in data set [1] is recorded as “more effective”. The “improvement in tumor volume” value in the data set with CT26 tumor cells (chimeric protein administered after the anti-CTLA-4 antibody) is recorded as “most significant improvement”. For the same substance, the tumor volume entry in the data set on CT26 tumor cells (combination with anti-CTLA-4 antibody) was “reduced tumor volume”. Moreover, the “treatment outcome (tumor size, survival)” value in the data set with CT26 tumor (anti-CTLA-4 antibody administered before the chimeric protein) and in the data set on CT26 tumor (anti-PD-1 antibody administered with the chimeric protein) was “greatest treatment outcome” throughout. Also, the “treatment outcome / tumor control” value in the data set on CT26 tumor (chimeric protein administered before or after the anti-PD-1 antibody) and in the data set on CT26 tumor (chimeric protein administered before the anti-CTLA-4 antibody) was “less great treatment outcome” each time. In the data set on CT26 tumors (13 days following tumor inoculation), the “proportion of AH1-tetramer positive CD8+ T cells in tumor and spleen” value is given as “increase in the proportion”. In the data set on CT26 tumors (antibody-mediated depletion of CD4+ cells), the “therapeutic benefit with CD4 depletion” value is on record as “partially required”. The “therapeutic benefit with CD8 depletion” value in the data set on CT26 tumors (antibody-mediated depletion of CD8+ cells) is given as “completely eliminated the therapeutic benefit”. For the same substance, in the data set on WEHI3 tumors (combination with anti-CD20 antibody), the tumor size result is listed as “reduced tumor size greater than either component alone”. Moreover, the tumor reduction entry is “less tumor reduction” in the data set with WEHI3 tumors (combination with anti-IFNAR-1 antibody vs chimeric protein alone); “less tumor reduction” in the data set with WEHI3 tumors (triple combination with anti-CD20 and anti-IFNAR-1 antibodies vs chimeric protein plus anti-CD20). Also, the hemolysis result in data set [2] is given as “did not reveal evidence of hemolysis”. In addition, in data set [3] (before and after each dose), the “total number of lymphocytes (episodic fluctuation)” value is “did not depart from the upper and lower range of normal”. For the same substance, the “number of CD40+ cells in the peripheral blood” value in data set [3] (cynomolgus monkey, in vivo) is on record as “dose-dependent decrease”. Further, the “serum cytokines/chemokines (CCL2, CXCL9, CXCL10, IL-6, IL-15, IL-17A, IL-23)” value in data set [3] (following each infusion) is reported as “dose-dependent increases”. The “rejection of primary tumor” value in the data set on tumors is on record as “able to reject primary tumor”.
